In patent US7160684B2, “Methods of selecting compounds for modulation of bladder function” (Wyeth, priority 2000, dated 2007):
Like-named read-outs stand apart in the source and are kept apart here.

Tested on: isolated rat bladder strips
Assay: Isolated rat bladder strip contraction
Details: Rattus norvegicus, n=4
Procedure: Male Sprague-Dawley rats (200–400 grams) are euthanized by CO2 inhalation and exsanguination. Their urinary bladders are rapidly removed and placed in […] physiological salt solution (PSS) that contained the following (mM): NaCl (118.4), KCl (5), CaCl2 (2.5), MgSO4 (1.2), KH2PO4 (1.2), NaHCO3 (24.9) and D-glucose (11.1) gassed with O2/CO2 (95% /5%) to achieve a pH of 7.4. The dome of the bladder is isolated from the trigon region and this tissue is then cut into 4–5 mm wide by 10 mm long strips. One end is secured to the bottom of a water jacketed tissue bath and the other to a GRASS isometric force transducer (Grass Instruments, Quincy, Mass.). Tissues are pretensioned (0.25 to 0.5 grams), and after 30 minutes of equilibration are contracted with an additional 15 mM KCl (total of 20 mM) and again allowed to equilibrate until the preparations are contracting steadily. Any of a variety of compounds are administered directly into the tissue baths as sequential concentrations. Transducer signals are digitized (12 bit resolution) and analyzed on-line using a 586-based computer and custom software. The area under the contraction curve (AUC) is used as a measure of contractility since the spontaneous bladder contractions are irregular in amplitude and frequency. A 5-minute AUC value is taken 30 minutes after administration of each compound concentration to the tissue bath.
We isolated rat bladder strips from male Sprague-Dawley rats as previously described, (Wojdan, A., Freeden, C., Woods, M., Oshiro, G., Spinelli, W. et al., J Pharmacol Exp Therap 289: 1410–1418 (1999)) and precontracted them with 20 mM KCl. The KCNQ channel agonist retigabine, was added to the tissue bath in increasing concentrations, and area under the contraction curve was analyzed.
In another study, isolated rat bladder strips were precontracted with 60 mM KCl (FIG. 1).
The difference in IC50s between 20 and 60 mM KCl depolarizations are consistent with a potassium channel opening mechanism.
Rat bladder strips were isolated and prepared as previously described (Wojdan, A., Freeden, C., Woods, M., Oshiro, G., Spinelli, W. et al., J Pharmacol ExpTherap 289:1410–1418 (1999)). Preparations were contracted with either 20 or 60 mM KCl, or 200 nM carbachol. A five minute area under the contraction curve was acquired 20 minutes after addition of each concentration of retigabine using a 12 bit D/A and a 586 based personal computer running custom software. Message for KCNQ subunits was probed using quantitative rtPCR on an ABI PRISM 7700 Sequence Detection System (TAQMAN). Forward and reverse primers and TAQMAN probes were designed using published RNA sequences for human KCNQ1–5 and rat KCNQ 1–4 listed within the NCBI data base. Since no rat sequence for KCNQ5 were currently published, probes and primers were designed by BLAST analysis of rat Expressed Sequence Tags (EST) using the known mouse KNCQ5 sequence. From homologous EST sequences, a contiguous sequence of 384 base pairs was constructed. Probes and primers were designed against this sequence. BLAST analysis of our rat KCNQ5 probes and primer were selective for mouse and human KCNQ5 sequences. PCR products were confirmed by gel electrophoresis (data not shown). Cells for electrophysiology were prepared from rat bladder smooth muscle as previously described (Wojdan et al., 1999). Human bladder smooth muscle cells were obtained from Clonetics, San Diego, Calif. […]

Which IC50 (read-out: IC50 for inhibition of isolated rat bladder strip contractions, precontracted with 20 mM KCl, area under the contraction curve) does the source give for CCOC(=O)Nc1ccc(NCc2ccc(F)cc2)cc1N [retigabine, N-[2-amino-4-(4-fluorobenzylamino)-phenyl]carbamic acid ethyl ester] here?
The IC50 was 1.4 ± 0.1 µM.

And the IC50 (read-out: IC50 for inhibition of isolated rat bladder strip contractions, precontracted with 60 mM KCl)?
Its IC50 is 21.8 ± 0.8 µM.
